Reference: patent US20230047208A1, “RNA Splicing Modulation” (The General Hospital Corporation, priority 2020, published 2023)

Test system: MLH1 c.1989 G>A, exon 17
Assay: MLH1 c.1989 G>A minigene exon 17 splicing in transfected cell lines
Assay type: cell-based
Conditions: 60 μM, 24 hours
From the text: FIGS. 4C-4F Upper row: The sequences at the 5′ splice site of Exon X in patient cells and minigene constructs are shown (FIGS. 4C-4F). The sequences around the 5′ splice site of Exon X are shown in LOGO plots, with the closely matched CNN motifs indicated beneath the plots. […] Middle row: RT-PCR experiments validated treatment responses in patient cell lines carrying specific splice site mutations. The upper bands indicate the isoform in which the middle Exon X is included while the lower bands indicate the isoform in which the middle Exon X is skipped. Each set of gels is one of the triplicates used to generate the bar plots beneath. […] The statistical significance, as shown in FIGS. 4C-4F, was determined via two-tailed, unpaired Student's test: *p<0.05; **p<0.01; ***p<0.001.
In another example from Table 18, a minigene encompassing MLH1 exons 16 to 18 and flanking exon 17 intronic sequences, with the c.1989 G>A mutation was prepared. This mutation was predicted by SpliceA1 to cause skipping of exon 17 in the MLH1 gene. […] The c.1989 G>A mutation in MLH1 is associated with hereditary nonpolyposis colorectal cancer (HNPCC) or Lynch syndrome (MIM #120435). Individuals with MLH1 mutations also have an increased risk of cancers of the endometrium, ovaries, stomach, small intestine, liver, gallbladder duct, upper urinary tract, and brain^14-16,65. […]

SMILES: Clc1nc(NCc2ccncc2)c2cc[nH]c2n1 [Compound (I), 2-chloro-N-(pyridin-4-ylmethyl)-7H-pyrrolo[2,3-d]pyrimidin-4-amine]
- exon 17 splicing: significantly promoted exon 17 inclusion
